Measured values as given in US5041636A, “Urea derivatives” (Wako Pure Chemical Industries, Ltd., priority 1986, dated 1991).
Structures can show the parent of a compound that is named as a salt.

Tests used:
Assay type in all cases: physicochemical
[1] = Stability of leuco dye solution (Table 1); parameters: key: A: stable; B: slightly unstable
Description: (§1) Various properties such as the stability of leuco dye solution, the stability after color developed, the maximum absorption wavelength (λmax), the sensitivity (ε) and the solubility in water of typical 14 examples of the urea derivatives of the formula (I) are shown in Table 1.
(§2) In Table 1, "A" means stable and "B" means slightly unstable in the evaluation of the stability of the leuco dye solution and the stability after color development. The solubility in water is evaluated as .circleincircle. highly soluble, soluble, and X hardly soluble.

[2] = Stability after color development (Table 1); parameters: key: A: stable; B: slightly unstable
Description: as §1, §2

[3] = Maximum absorption wavelength (λmax) and sensitivity (ε) (Table 1); conditions: at color development
Excerpt: as §1

[4] = Solubility in water (Table 1)
Description: as §1, §2

Row | SMILES | Stability of leuco dye soln. [1] | Stability after color developed [2] | λmax [3] [nm] | Solubility in water [4]
1 | Cc1ccc(S(=O)(=O)NC(=O)N(c2ccc(N(C)CO)cc2)c2ccc(N3CCCCC3)cc2)cc1 [(5)] | A | B | 730 | 
2 | CCCN(CCC)c1ccc2c(c1)Oc1cc(N(CCC)CCC)ccc1N2C(=O)NCC(=O)O [(11)] | A | B | 666 | .circleincircle
3 | CCCN(CCC)c1ccc2c(c1)Sc1cc(N(CCC)CCC)ccc1N2C(=O)NCC(=O)O [(12)] | A | B | 666 | .circleincircle
4 | CCN(CC)c1ccc(N(C(=O)NS(=O)(=O)c2ccc(C)cc2)c2ccc(N(C)C)cc2C)c(C)c1 [Compound No. (7), N-(4-dimethylamino-2-methylphenyl)-N-(4'-diethylamino-2'-methylphenyl)-N'-(4-methylphenylsulfonyl)urea] | A | A | 740 | 
5 | CCCCNC(=O)N(c1ccc(N(C)C)cc1)c1ccc(N(C)C)cc1 [(16), reference compound] | A | B | 730 | 
6 | CNC(=O)N1c2ccc(N(C)C)cc2Sc2cc(N(C)C)ccc21 [(17), reference compound] | B | B | 666 | 
7 | CN(C)c1ccc2c(c1)Sc1cc(N(C)C)ccc1N2C(=O)NCC(=O)O [Compound No. (9), sodium salt of 10-(carboxymethylaminocarbonyl)-3,7-bis(dimethylamino)phenothiazine] | B | B | 666 | .circleincircle
8 | CN(C)c1ccc2c(c1)Oc1cc(N(C)C)ccc1N2C(=O)NCC(=O)O [Compound No. (10), sodium salt of 10-(carboxymethylaminocarbonyl)-3,7-bis(dimethylamino)phenoxazine] | B | B | 666 | .circleincircle
9 | CN(C)c1ccc(N(C(=O)Nc2ccc(S(=O)(=O)O)cc2)c2ccc(N(C)C)cc2)cc1 [Compound No. (2), sodium salt of N, N-bis(4-dimethylaminophenyl)-N'-(4-sulfophenyl)urea] | A | B | 730 | .circleincircle
10 | CN(C)c1ccc(N(C(=O)NCC(=O)O)c2ccc(N(C)C)cc2)cc1 [Compound No. (1), sodium salt of N,N-bis(4-dimethylaminophenyl)-N'-carboxymethylurea] | A | B | 730 | .circleincircle
11 | CN(C)c1ccc2c(c1)Sc1cc(N(C)CC(=O)O)ccc1N2C(=O)NCC(=O)O [(14)] | B | B | 666 | .circleincircle
12 | CNC(=O)N(c1ccc(N(C)C)cc1)c1ccc(N(C)C)cc1 [(15), reference compound] | A | B | 730 | 
13 | CN(C)c1ccc(N(C(=O)NCCC2CCOCC2)c2ccc(N(C)CO)cc2)cc1 [(6)] | A | B | 730 | 
14 | CN(C)c1ccc2c(c1)Oc1cc(N(C)CC(=O)O)ccc1N2C(=O)NCC(=O)O [(13)] | B | B | 666 | .circleincircle
